Data set [1] deals with G3BP1 knockdown HT22 cells. Put plainly: Activity of PB3 in G3BP1 knockdown (siRNA) HT22 cells. In kind it is cell-based. Conditions: PB3 50 µM. Here is the method:
The CCK‐8 assay kit (Yeasen, China) was used to assess cell viability. All operations were performed following instructions. HT22 cells were seeded into the 96‐well plate (3000 cells per well). The cells were cultured at 37 °C with 5% CO2 in a humidified incubator overnight. After 6 h of OGD, the medium was replaced by DMEM/F‐12 with 10% FBS and 1% penicillin/streptomycin containing PB3 or other compounds and kept in a humidified 5% CO2, 37 °C incubator for 24 h. Then, the cells were washed with PBS, the medium was replaced with DMEM/F‐12 with 10% FBS and 1% penicillin/streptomycin containing 10% CCK‐8 solution, and incubated for 1 h at 37 °C. The absorbance was assessed by a Synergy H1 multi‐mode microplate reader (BioTek, USA) at 450 nm.
Apoptosis level was evaluated by TUNEL staining and flow cytometry. For TUNEL staining, HT22 cells were treated with 4% paraformaldehyde for 15 min. […] Red fluorescence was utilized to identify apoptotic cells, while 4′, 6‐diamidino‐2‐phenylindole (DAPI) was used to counterstain the nuclei. The fluorescence microscope (Carl Zeiss, Germany) was used to obtain images. For flow cytometry, apoptotic cells were determined with the Annexin V‐Alexa Fluor 488/PI apoptosis detection kit (Yeasen, China) by following the instructions. […] Cell apoptosis was immediately determined by Cytek Aurora (Cytek Biosciences, USA). […]

In the next data set the test system is G3BP1. Briefly: Immunoblotting of G3BP1 protein level. In kind it is cell-based. Here is the method:
Cells and tissues were homogenized in RIPA buffer (Beyotime, China) containing protease inhibitors (Biovision, USA) on ice for 30 min. After centrifugation (13000 r min^−1, 4 °C) for 10 min, the resulting supernatant was collected. The protein concentrations were determined by a BCA protein assay kit (Thermo Scientific, USA). After separating a 10% sodium dodecyl sulfate (SDS)‐polyacrylamide gel, protein on the gel was then transferred onto nitrocellulose membranes (Merck, USA), which were blocked with 5% bovine serum albumin for 1 h to prevent non‐specific binding. Then, the anti‐caspase 3 antibody (catalog no. 9662, Cell Signaling Technology, USA), anti‐Bcl‐2 antibody (catalog no. GTX100064, GeneTex, USA), anti‐G3BP1 antibody (catalog no. 66486‐1‐Ig, Proteintech, China), anti‐β‐tubulin antibody (catalog no. 66240‐1‐Ig, Proteintech, China), and anti‐β‐actin antibody (catalog no. 66009‐1‐Ig, Proteintech, China) were used for treating the membrane overnight at 4 °C. Bound antibodies were detected with the species‐appropriate horseradish peroxidase‐labeled secondary antibody (Jackson ImmunoResearch, USA) using ECL reagents (ShareBio, China). Protein‐specific signals were detected using a Bio‐Rad Imager (Bio‐Rad, USA), and the bands were quantified by densitometric analysis software (ImageJ). β‐tubulin or β‐actin was used as a loading control.
Background: Immunoblotting shows a protein as a band on a membrane.

The test system of a further data set is bEnd.3 cells. Briefly: In vitro BBB model, Transwell transport apical-to-basolateral. In kind it is in vitro ADME. Particulars: 100 µM, apical-to-basolateral, 30, 60, and 120 min. Here is the method: The Transwell filters (0.4 µm pore) were used to evaluate the crossing capacity of the BBB of selected compounds. The basolateral side of the wells was filled by DMEM (Gibco, USA) with 10% FBS. Then, bEnd.3 cells were seeded on the apical side of the semi‐permeable filter in a humidified atmosphere. The culture medium was changed on alternate days. To verify if the cell monolayer formed junctions, the resistance was daily monitored by determining the trans‐endothelial electrical resistance. The resistance value of an empty filter was subtracted from each measurement. After reaching the confluence, bEnd.3 monolayer cells were washed three times with PBS, and the basolateral compartment was filled with Hanks' Balanced Salt Solution (HBSS). The permeability experiments across the cell monolayer were performed in the apical‐to‐basolateral direction. Transport experiments were assessed by placing the compounds, prepared in HBSS, on the upper side of the monolayers (100 µM/300 µL). At different time points (30, 60, and 120 min), 500 µL samples were taken from the basolateral side, and to replace the withdrawn volume, the same volume of preheated HBSS was added. The amount of cellular drug uptake was measured using a Waters e2695 system (Waters, USA).

A further data set relates to tMCAO mice. Put plainly: Long-term neurological recovery after tMCAO. In kind it is in vivo. Particulars: 48 mg/kg daily, i.p. Here is the method:
The modified neurological severity score was applied according to the previous report.^[ [63] ^] The range of the neurological function score extends from 0 to 18 points. A higher score represents more severe neurological deficits. In the rotarod test, according to the previous report,^[ [64] ^] mice were tested under the accelerating rotor mode with acceleration from 5 to 20 rpm. The final score for statistical analysis was expressed as the mean time that mice could remain on the rod.

This is an account of results in paper PMC12677652, “Procyanidin B3 and Its Derivatives Alleviate Neuronal Injury by Targeting G3BP1 for Ischemic Stroke Therapy” (Advanced Science, 2025).

As for `Oc1cc(O)c2c(c1)O[C@H](c1ccc(O)c(O)c1)[C@@H](O)[C@@H]2c1c(O)cc(O)c2c1O[C@H](c1ccc(O)c(O)c1)[C@@H](O)C2` [Compound 1, procyanidin B3], in data set [1], the “cell viability, effect of G3BP1 knockdown” value is given as “inhibited the neuroprotective effects” and the “rate of TUNEL‐positive cells” value is “not significantly changed”. Also, in the data set on G3BP1, the “protein level of G3BP1” value was “did not perturb the protein level of G3BP1”.

Consider `CC(C)c1c(O)cc(O)c2c1O[C@H](c1ccc(O)c(O)c1)[C@@H](O)[C@@H]2c1c(O)cc(O)c2c1O[C@H](c1ccc(O)c(O)c1)[C@@H](O)C2` [Compound 6c, 8‐Isopropyl‐(+)‐Catechin‐(4α,8)‐(+)‐Catechin], for which the transport efficiency entry with bEnd.3 cells is recorded as “better than that of 1”. In addition, in the data set on tMCAO mice, the body weight entry was “mitigated the tendency toward weight loss” and the “modified neurological severity scores” value is listed as “lower scores than the tMCAO group”. Further, the rotarod test entry in the data set on tMCAO mice (at the end of treatment) is reported as “showed improvements compared with the tMCAO group”.
